Experimental data as given in patent US8440240B2, “Method for treating ocular demodex” (priority 2005, dated 2013).
“And” between values parts separate entries of the source, which are not always exact repeats. Equal values may be shown once.

Columns and labels:
[1] = test system: Demodex folliculorum; assay: In vitro killing: survival time of live adult demodex from epilated lashes in test solutions; conditions: for ST: survival time of demodex: 150 = still alive (no effect); for killing effect on Demodex in words (relative to TTO): in vitro
Description: TT shampoo was from Kato Sales, Inc. (Altamonte Springs, Fla., USA). TTO was diluted with mineral oil into different concentrations.
Under the microscope, if the epilated lash contained live demodex, different solutions were added to the coverslip edge. The movement of demodex body and legs was continuously observed for 150 minutes. The survival time (ST) (Table 2 below) was counted from the time when the solution was added to the time when the movement ceased (See FIG. 1) The average ST tested for a given solution in a number of mites was used to compare the in vitro killing effect. If demodex remained alive at the end of 150 minutes, this value was denoted as no effect. Because demodex in an earlier life stage was more vulnerable, we only tested adult demodex that had 4 pairs of well developed legs and stumpy body. Because demodex buried in cylindrical dandruff (CD) might preclude the killing effect, we only tested demodex of which the whole body was fully exposed to the test solution.

[2] = test system: Demodex folliculorum; conditions: Norn 1970; cited from earlier work

CC[C@@H]1C(=O)OC[C@@H]1Cc1cncn1C [Pilo, pilocarpine, reference compound]
Killing effect on Demodex (Time in minutes), Average ([1]; 2%, 150 = no effect): 150 min
Killing effect on Demodex (Time in minutes), single mite ([1]; 2%, 150 = no effect): 150 min
ST: survival time of demodex ([1]; 4% solution): 150 min
ST: survival time of demodex ([1]; 4% solution, listed as Pilocarpine): > 150 min
Killing effect on Demodex (Time in minutes), Average ([1]; 4%, 150 = no effect): 150 min
Killing effect on Demodex (Time in minutes), single mite ([1]; 4%, 150 = no effect): 150 min

CC12CCC(CC1)C(C)(C)O2 [Eucalyptol]
Killing effect on Demodex (Time in minutes), Average ([1]; concentration not given): 36.8 min
Killing effect on Demodex (Time in minutes), single mite ([1]; concentration not given): 30 min and 35 min and 40 min and 42 min
killing effect on Demodex in words (relative to TTO) [1]: not as effective as TTO

CC1=CCC(O)(C(C)C)CC1 (centres unmarked) [Terpinen-4-ol]
killing effect on Demodex in words (relative to TTO) [1]: active ingredient

C=C(C)[C@H]1CC=C(C)CC1 [(+)-Limonene, (R)-(+)-Limonene]
Killing effect on Demodex (Time in minutes), Average ([1]; 97%): 66.8 min
killing effect on Demodex in words (relative to TTO) [1]: not as effective as TTO

CCO [Alc, alcohol, reference compound]
ST: survival time of demodex ([1]; 75% solution): 150 min
ST: survival time of demodex ([1]; 100% solution, adult mites, observed 150 min, mean±S.D.): 3.9 ± 1.2 min
time to kill demodex [2]: within several minutes

xylol
time to kill demodex [2]: within several minutes

CCOCC [ether]
time to kill demodex [2]: within several minutes

C=C(C)[C@H]1CC=C(C)C(=O)C1 [(+)-Carvone]
Killing effect on Demodex (Time in minutes), Average ([1]; 25%): 22.7 min
Killing effect on Demodex (Time in minutes), single mite ([1]; 25%): 25 min and 20 min and 23 min
Killing effect on Demodex (Time in minutes), Average ([1]; 50%): 11.6 min
Killing effect on Demodex (Time in minutes), single mite ([1]; 50%): 13 min and 8 min and 10 min and 11 min and 16 min
Killing effect on Demodex (Time in minutes), Average ([1]; 100%): 4.2 min
Killing effect on Demodex (Time in minutes), single mite ([1]; 100%): 4 min and 5 min and 3 min
killing effect on Demodex in words (relative to TTO) [1]: as effective as TTO

c1ccccc1 [benzene]
time to kill demodex [2]: within several minutes

povidone iodine [PI, reference compound]
ST: survival time of demodex ([1]; 10% solution, observed 150 min): 150 min
